# Data published in patent US9642922B2, “Caspase-triggered nano-aggregation probes and methods of use” (The Board of Trustees of the Leland Stanford Junior …, priority 2013, dated 2017).
# Numbered stars: 1 amine (or outer) side, 2 acyl side, 3 side chain; on linkers, the order of the positions; unused ones are H or OH. Square brackets hold non-standard residues; d marks the D form. Peptide text beside a SMILES is read from it. * marks the point of attachment. DOTA = O=C(O)CN1CCN(CC(=O)O)CCN(CC(=O)*)CCN(CC(=O)O)CC1; X1 = O=C(C1CSC(c2nc3ccc(N[*:1])cc3s2)=N1)[*:2]; X3 = c1cnc2ccc(OCCCN*)cc2c1; SEt = CCS*
# Key:
# caspase-3 [1] = molecular target: T1, caspase-3 (Homo sapiens, UniProt P42574); assay: HPLC assay of caspase-3-triggered cyclization of MRI probe 15; format: biochemical; parameters: purchased Sigma; host or cells: E. coli
# T1 sequence (P42574 29-175 limits assumed): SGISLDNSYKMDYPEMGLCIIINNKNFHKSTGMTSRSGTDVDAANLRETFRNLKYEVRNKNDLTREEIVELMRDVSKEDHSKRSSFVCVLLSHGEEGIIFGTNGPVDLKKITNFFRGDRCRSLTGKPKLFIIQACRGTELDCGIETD
# T1 sequence (P42574 176-277 limits assumed): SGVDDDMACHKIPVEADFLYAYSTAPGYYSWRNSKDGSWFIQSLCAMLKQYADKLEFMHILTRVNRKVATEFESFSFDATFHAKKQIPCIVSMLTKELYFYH
# Procedure: The progression of caspase-3-triggered intramolecular cyclization of probe 15 in solution was investigated by incubation (200 μM) with recombinant human caspase-3 (50 nM) using high-performance liquid chromatography (HPLC). […] More than 90% of probe 15 and its disulfide bond reduced intermediates could be converted after 5 h (FIG. 27B).
# [2] = Water proton r1 relaxivity measurement; format: physicochemical; conditions: 1 T
# Procedure: Water proton r1 relaxivities of probe 15 and 1-ctrl (19) before and after caspase-3 incubation were then measured at 1, 1.5 and 3 T. For comparison, the isolated cyclized products 2-I and 2-II were also measured.
# A series of solutions containing contrast agents with five different concentrations (0.05-0.5 mM) in Caspase buffer (pH 7.4) were treated with or without Casp-3 (50 nM) at 37° C. overnight. The solutions were placed in PCR tubes, bundled together, and MR-imaged at 1 T (Bruker Icon, Bruker BioSpin Corp.), […], 1.5 and 3 T (Signa HDx, GE Healthcare) at room temperature.
# The scanning procedure began with a localizer and then consisted of a series of inversion-prepared fast spin echo scans, identical in all aspects (TR 8000 ms (6000 ms for Bruker Icon), TE minimum, field of view 6 cm, slice thickness 2 mm, matrix 128×128, NEX 1) except for the inversion time (TI) that was varied as: 4000, 2400, 1200, 800, 600, 400, 300, 200, 100, and 50 ms. For quantitative data analysis, the acquired MR images were transferred as DICOM images to an offline workstation, and signal intensities were extracted from each of the 5 samples at each of the 10 TI times by manual region of interest (ROI) placement and voxel averaging within the ROI.
# Signal intensity versus TI relationships were fit to the following exponential T1 recovery model by non-linear least squares regression: SI (TI)=S0[1−2*exp(−TI/T1)+exp(−TR/T1)]. Relaxation rates (R1) were determined as 1/T1. Longitudinal relaxivities (r1, units of mM^−1s^−1) were calculated as the slope of R1 vs [Gd] after the determination of true Gd concentration of each sample by the ICP-MS measurement.
# subcutaneous HeLa tumors = assay: In vivo MR imaging of doxorubicin-treated HeLa tumors; parameters: species or system mouse; conditions: up to 4 h
# Procedure: Evaluation of activatable contrast agent probe 15 for MR imaging of caspase-3 activity in vivo was performed in nude mice bearing subcutaneous HeLa tumors. Tumors were implanted and grown for 10-15 days before receiving intratumoral injections of two doses of 0.2 mg doxorubicin separated by 2 days. Probe 15 or 1-ctrl (19) (0.1 mmol kg^−1) was injected intravenously the day before treatment (baseline) and four days post-treatment (treated). Spin-echo T1-weighted multislice MR images at 1 T were recorded before (pre-contrast) and every 4 min after contrast agent administration (post-contrast), and scanning was carried out for 4 h post-contrast for each mouse. Much brighter MR signals (T1 contrast) were observed 40 and 120 min after injection with probe 15 in treated tumors as compared to that in baseline tumors (FIG. 29A), or in treated tumors with 1-ctrl (19) (FIG. 29B).
# In vivo MR imaging was performed on an Aspect M2 1T permanent magnet (Aspect Imaging, Shoham, Israel) using a 40 mm Transmit/Receive mouse body coil. During imaging, the animals were anaesthetized with isofluorane and their respiration and body temperature were constantly monitored. Intravenous contrast injection at 0.1 mmol/kg concentration was administered in a 100 μL volume for every imaging session. Multi-slice (312 μm in-plane, 12 slices with 1 mm thickness) T1-weighted spin echo images (TE/TR=8.9/250 ms, matrix 128×128, FOV=40 mm, NEX=6) were acquired, one before contrast injection and then every 4 min up to 4 h after contrast injection. A 1 mM Dotarem reference tube was inserted in the field of view to enable inter-session variability correction during post-processing. Each animal underwent two imaging session; one before DOX treatment (baseline), and one after DOX treatment (treated).
# Acquired MR data were transferred as DICOM images to an offline workstation and ImageJ (NIH) was used for post processing and quantitative image analysis. This consisted of manual segmentation of tumor ROI for each slice, slice-wise normalization of mean tumor signal intensity with the 1 mM Dotarem reference standard to account for inter-session variability, followed by combining these normalized, slice-wise values to generate mean volumetric tumor signal intensities (SI) for each time point.
# Signal enhancement was calculated at each time point as the difference between the tumor SI at that time point and the tumor SI in the pre-contrast (t=0) dataset. SE(t)=SI(t)−SI(t=0); for each mouse, for every session
# This metric was used to quantify the difference in SE between the baseline (before DOX treatment) session and the treated session for each mouse, as a means to tease out the difference between the two contrast agents, probe 1 and 1-cntl (19) over the time course of the imaging session. % D(t)=[SE(t,treated)−SE(t,baseline)]/SE(t,baseline); for each mouse.
# HeLa cells = assay: ICP-MS cellular uptake of Gd in HeLa cells; format: cell-based, human; conditions: 250 μM, 24 h
# Procedure: The cellular uptake of Gd was studied by inductively-coupled plasma mass spectrometry (ICP-MS) analysis of the amount of Gd in viable and apoptotic cells after incubation with probe 15 (50-250 μM) for 24 h. […] This uptake enhancement was inhibitable by Z-VAD-fmk (50 μM), confirming the caspase-3-dependent accumulation of probe 15 in apoptotic cells.
# [3] = Stability of PET tracers in mouse serum; format: in vitro ADME; conditions: 1 h incubation, 37° C.
# Procedure: To the mouse serum (500 μL) 100 μL (approximately 100 μCi/3.7 MBq) of radioactive sample was added and the mixture was incubated at 37° C. At each time point, 100 μL of sample was taken and after mixing with 100 μL of acetonitrile was centrifuged at 9,400×g for 5 min. The resulting supernatants were collected, and an aliquot of each supernatant (100 μL) was diluted with 100 μL of water and analyzed via the same HPLC method used for quality control (fitted with a highly sensitive positron detector for radioactivity). The percent ratio of intact compound to the total radioactivity on the HPLC chromatogram was calculated as %=[(peak area for intact compound)/(total peak area)]×100.
# caspase-3 [4] = molecular target: T1, caspase-3; assay: Incubation of PET tracer with recombinant caspase-3, radio-HPLC; format: biochemical; conditions: same condition
# Procedure: To evaluate the activatable PET tracer 1 for caspase-3 detection, it was first incubated with recombinant caspase-3 in buffer.
# HeLa tumor xenograft = assay: PET imaging of HeLa tumor xenograft-bearing nude mice; format: in vivo, mouse
# Procedure: One group of animals was scanned at baseline (before treatment) and 4 days post treatment with 0.2 mg doxorubicin injected into the tumor. On the day of scanning, the animals were moved from their housing area to the PET scanner around 1 h prior to the experiment. They were constrained shortly in a tail veiner and injected intravenously, with 440±97 μCi (16±3 MBq) [^18F]C-SNAT formulation. They were anesthetized with 2% isoflurane shortly before placement in an R4 microPET scanner (Siemens Medical Solutions, USA). The anesthesia were continued with 2% isoflurane doing 5 min of acquisition. Scans using the control tracer 1-D (173±73 μCi/9±4 Mbq in 200 μL formulation) were carried out in a similar manner using two groups (one baseline and one treated) instead of the same animals at baseline and after treatment. The images were reconstructed using a standard 2D reconstruction without attenuation correction.
# The reconstructed images were analyzed by making two volumes of interest (VOI), one on the tumor and one located on the left shoulder corresponding to muscle/bone mixture. The percent of injected dose per gram tissue (% ID/g) was calculated in each VOI and the ratio between tumor and muscle uptake was calculated based on this uptake (uptake in tumor/uptake in muscle region). The effect of treatment was calculated as the difference in uptake of [^18F]C-SNAT at baseline and after treatment.
# Evaluation of activatable PET tracer 1 and control tracer 1-D for PET imaging of caspase-3 activity in vivo was performed in HeLa tumor xenograft-bearing nude mice. Tumors were implanted and grown for a minimum of 10 d before receiving intratumoral injection of 0.2 mg DOX (20 μL). 1 or 1-D (5-15 MBq/135-405 μCi) was injected through the tail vein for PET imaging 4 d post treatment. Static PET scans (5 min) were performed 65, 125 and 182 mins post tracer injection.
# HeLa cell pellets = assay: MRI T1 of HeLa cell pellets at 1 T; format: cell-based, human; conditions: 250 μM, 24 h
# Excerpt: Thus, higher caspase-3 activity in apoptotic cells can trap probe 15 inside cells, resulting in higher MRI contrast for cell apoptosis imaging.
SMILES,products observed after incubation with caspase-3 (caspase-3 [1]),reduction of relaxivity after incubation with caspase-3 [2],difference in SI enhancement between treated and baseline tumors (subcutaneous HeLa tumors),uptake of Gd in STS-treated cells compared with probe 15 (HeLa cells),intact tracer in mouse serum [3],cleavage by caspase-3 (caspase-3 [4]),uptake difference between before and after treatment (HeLa tumor xenograft; control tracer),"change of T/M ratio (HeLa tumor xenograft; mouse, in vivo)","uptake in treated and non-treated tumors compared with 1 (HeLa tumor xenograft; mouse, in vivo)",difference in T1 between STS-treated and non-treated cells (HeLa cell pellets),r1 relaxivity without caspase-3 activation [2]
CCSSCC(NC(=O)C(CC(=O)O)NC(=O)C(NC(=O)C(CCC(=O)O)NC(=O)C(CC(=O)O)NC(C)=O)C(C)C)C(=O)NC(CCCCNC(=O)CN1CCN(CC(=O)[O-])CCN(CC(=O)[O-])CCN(CC(=O)[O-])CC1)C(=O)Nc1ccc2nc(C3=NC(C(=O)NCCCOc4ccc5ncccc5c4)CS3)sc2c1.[Gd+3] (stereo not drawn) [1-ctrl (19)] (Ac-DEVDC(SEt)K(DOTA)[X1]-X3; configuration not given here),only the DEVD peptide cleaved and disulfide reduced product was observed,14%,no significant difference in SI enhancement,much lower uptake of Gd,–,–,–,–,–,–,–
CSCC(NC(=O)C(CC(=O)O)NC(=O)C(NC(=O)C(CCC(=O)O)NC(=O)C(CC(=O)O)NC(C)=O)C(C)C)C(=O)NC(Cc1cn(CCOCCOCCOCC[18F])nn1)C(=O)Nc1ccc2nc(C3=NC(C(=O)NCCCOc4ccc5ncccc5c4)CS3)sc2c1 (stereo not drawn) [1-D],–,–,–,–,90%,could not be cleaved by caspase-3,less than 0.2 % ID/g,did not show significant increases,much lower than that of 1,–,–
"CNC[C@H](O)[C@@H](O)[C@H](O)[C@H](O)CO.O=C([O-])CN1CCN(CC(=O)[O-])CCN(CC(=O)O)CCN(CC(=O)[O-])CC1.[Gd+3] [Dotarem, reference compound]",–,–,–,much lower uptake of Gd,–,–,–,–,–,no significant reduction in T1,4.8 mM⁻¹ s⁻¹
